From patent publication US7183306B2, “Pyrazole derivatives” (Astellas Pharma Inc., priority 2002, dated 2007) come the findings set out here.

One may read the melting point as the temperature of the solid-liquid transition. On to `COc1ccc(-n2nc(S(C)(=O)=O)cc2-c2ccc(OCCN)cc2)cc1`, for which the melting point was in the range of 104 to 106 °C.
As for `COc1ccc(-n2nc(C(=O)C(C)C)cc2-c2ccc(OCCNC(N)=O)cc2)cn1`, the figure is 145 to 147 °C; as for `COc1ccc(-n2nc(C(C)C)cc2-c2ccc(OCCNC(N)=O)cc2)cc1`, 100 to 104 °C; as for `COc1ccc(-n2nc(C(F)(F)F)cc2-c2ccc(CCNC(N)=O)cc2)cc1`, 157 to 158 °C.
In turn, `COc1ccc(-n2nc(OC)cc2-c2ccc(OCCNS(C)(=O)=O)cc2)cn1` came in with a melting point of 116 to 117.5 °C.
With `C=C(C)c1cc(-c2ccc(OCCNC(N)=O)cc2)n(-c2ccc(OC)nc2)n1` the figure was 94 to 98 °C.
As to `COc1ccc(-n2nc(C(=O)C(C)C)cc2-c2ccc(OCCO)cc2)cc1`, the melting point was 95 to 96 °C.
Take `COc1ccc(-n2nc(C(F)(F)F)cc2-c2ccc(CCNS(N)(=O)=O)cc2)cc1`: the melting point was 127 to 128 °C.
Consider `CCN(C)C(=O)c1cc(-c2ccc(CCNS(C)(=O)=O)cc2)n(-c2ccc(OC)cc2)n1`, for which the melting point was 162 to 163 °C.
As for `CO/N=C(\C)c1cc(-c2ccc(CCO)cc2)n(-c2ccc(OC)cc2)n1`, the figure is 82 to 86 °C; as for `COc1ccc(-n2nc(Cl)cc2-c2ccc(CNC(N)=O)cc2)cn1`, 111 to 115 °C; as for `CCOc1cc(-c2ccc(OCCNS(C)(=O)=O)cc2)n(-c2ccc(OC)cc2)n1`, 146 to 147 °C.
In turn, `COc1ccc(-n2nc(C3CC3)cc2-c2ccc(OCCN)cc2)cc1.Cl` [322] registered a melting point of 228 to 231 °C.
`COc1ccc(-n2nc(C(=O)C3CC3)cc2-c2ccc(OCCO)cc2)cn1`: the melting point was 104 to 106 °C.
Take `CNS(=O)(=O)CCc1ccc(-c2cc(C(F)(F)F)nn2-c2ccc(OC)nc2)cc1`: the melting point lay within 139 to 140 °C.
On to `COc1ccc(-n2nc(SC)cc2-c2ccc(OCCNS(C)(=O)=O)cc2)cc1`, for which the melting point is 165 to 166 °C.
As for `COc1ccc(-n2nc(Cl)cc2-c2ccc(CNS(C)(=O)=O)cc2)cc1`, the figure is 68.3 to 69.3 °C; as for `COc1ccc(-n2nc(OC(C)C)cc2-c2ccc(OCCNC(N)=O)cc2)cn1`, 120 °C.
With `COc1ccc(-n2nc(OCC(=O)N(C)C)cc2-c2ccc(OCCNC(N)=O)cc2)cc1` the figure was 223 to 227 °C; with `COc1ccc(-n2nc(OC(C)C)cc2-c2ccc(OCCNS(C)(=O)=O)cc2)cn1`, 121 to 121.6 °C; with `COc1ccc(-n2nc(C(=O)C(C)C)cc2-c2ccc(CNC(N)=O)cc2)cn1`, 157 to 157.3 °C.
With `C=C(C)c1cc(-c2ccc(OCCNS(C)(=O)=O)cc2)n(-c2ccc(OC)nc2)n1` the figure was 96 to 99 °C; with `COc1ccc(-n2nc(Cl)cc2-c2ccc(CNC(N)=O)cc2)cc1`, 125.5 to 126.2 °C; with `COc1ccc(-n2nc(C(F)(F)F)cc2-c2ccc(CCO)cc2)cn1`, 89 to 92 °C.
In the case of `CCOC(=O)c1cc(-c2ccc(OCCO[Si](C)(C)C(C)(C)C)cc2)n(-c2ccc(OC)cc2)n1`, the melting point is 86 to 87 °C.
With `COc1ccc(-n2nc(C(F)F)cc2-c2ccc(OCCNC(N)=O)cc2)cn1` [241] the figure was 139 to 140 °C.
With `COCCOc1cc(-c2ccc(OCCNS(C)(=O)=O)cc2)n(-c2ccc(OC)cc2)n1` the figure was 94.5 to 94.7 °C.
As for `COc1ccc(-n2nc(OCC(=O)N(C)C)cc2-c2ccc(OCCO)cc2)cc1`, the figure is 106.6 to 107.1 °C; as for `COc1ccc(-n2nc(Cl)cc2-c2ccc(OCCNS(C)(=O)=O)cc2)cn1`, 112 to 114 °C.
`COc1ccc(-n2nc(NC(=O)N(C)C)cc2-c2ccc(OCCO)cc2)cc1` yielded a melting point of 167.4 to 167.6 °C.
In turn, `COc1ccc(-n2nc(C(F)(F)F)cc2-c2ccc(CCNC(N)=O)cc2)cn1` returned a melting point of 205 to 206 °C.
With `COc1ccc(-n2nc(-c3nc(C)no3)cc2-c2ccc(OCCO)cc2)cc1` the figure was 158 to 159 °C.
Regarding `COc1ccc(-n2nc(OCC(F)F)cc2-c2ccc(OCCNC(N)=O)cc2)cn1`, the melting point was 146.9 to 147.3 °C.
As to `CCOc1cc(-c2ccc(OCCNS(C)(=O)=O)cc2)n(-c2ccc(OC)nc2)n1`, the melting point was in the range of 122 to 122.6 °C.
In the case of `COC(=O)NCCc1ccc(-c2cc(C(F)(F)F)nn2-c2ccc(OC)cc2)cc1`, the melting point fell in the range of 78 to 80 °C.
As for `CCN(C)C(=O)c1cc(-c2ccc(CNC(N)=O)cc2)n(-c2ccc(OC)nc2)n1`, the melting point fell in the range of 172.6 to 172.8 °C.
On to `COc1ccc(-n2nc(C(F)(F)F)cc2-c2ccc(CCNC(C)=O)cc2)cc1`, for which the melting point lay within 79 to 80 °C.
With `COc1ccc(-n2nc(OCC(F)(F)F)cc2-c2ccc(OCCO)cc2)cc1` the figure was 50.7 to 51.7 °C; with `COc1ccc(-n2nc(C(=O)N3CCCCC3)cc2-c2ccc(CNC(N)=O)cc2)cn1`, 178.9 °C; with `COc1ccc(-n2nc(C(=O)C(C)C)cc2-c2ccc(OCCN)cc2)cc1.Cl`, 129 to 142 °C.
Turning to `CCN(C)C(=O)c1cc(-c2ccc(OCCNS(C)(=O)=O)cc2)n(-c2ccc(OC)nc2)n1`, the melting point was in the range of 110 to 111 °C.
With `COc1ccc(-n2nc(C(F)(F)F)cc2-c2ccc(CNC(N)=O)cc2)cn1` the figure was 147 to 149 °C.
With `COc1ccc(-n2nc(OCC(F)(F)F)cc2-c2ccc(CNS(C)(=O)=O)cc2)cn1` the figure was 130 to 131 °C; with `COc1ccc(-n2nc(C(=O)C3CC3)cc2-c2ccc(OCCNC(N)=O)cc2)cc1`, 136 to 137 °C.
In turn, `COc1ccc(-n2nc(OCC(F)(F)F)cc2-c2ccc(OCCNC(N)=O)cc2)cn1` had a melting point of 134.8 to 134.9 °C.
The compound `CCOc1cc(-c2ccc(OCCO)cc2)n(-c2ccc(OC)cc2)n1` had a melting point of 67.7 to 69.2 °C.
`COc1ccc(-n2nc(C#N)cc2-c2ccc(OCCO)cc2)cc1` displayed a melting point of 91 to 92 °C.
As for `CSc1ccc(-n2nc(C(F)F)cc2-c2ccc(OCCNC(N)=O)cc2)cc1`, the figure is 184.3 to 184.7 °C; as for `CCN(C)C(=O)c1cc(-c2ccc(CNC(N)=O)cc2)n(-c2ccc(OC)cc2)n1`, 184.7 to 185.1 °C; as for `COc1ccc(-n2nc(C(=O)C(C)C)cc2-c2ccc(OCCNS(C)(=O)=O)cc2)cn1`, 155.6 to 155.8 °C.
With `CCOCCOc1cc(-c2ccc(OCCNC(N)=O)cc2)n(-c2ccc(OC)cc2)n1` the figure was 124.1 to 124.2 °C; with `COc1ccc(-n2nc(C(=O)C(C)C)cc2-c2ccc(CNS(C)(=O)=O)cc2)cc1`, 155.8 to 155.9 °C; with `CCN(C)C(=O)c1cc(-c2ccc(CNS(C)(=O)=O)cc2)n(-c2ccc(OC)cc2)n1`, 149.8 to 150.8 °C.
As for `COc1ccc(-n2nc(OC)cc2-c2ccc(OCCO)cc2)cc1`, the figure is 107 to 109 °C.
The compound `COc1ccc(-n2nc(C(=O)C3CC3)cc2-c2ccc(OCCO)cc2)cc1` displayed a melting point of 132 to 133 °C.
The compound `COc1ccc(-n2nc(OCC(C)C)cc2-c2ccc(OCCNS(C)(=O)=O)cc2)cc1` returned a melting point of 164.3 to 165.2 °C.
In turn, `COc1ccc(-n2nc(OC)cc2-c2ccc(OCCNC(N)=S)cc2)cc1` yielded a melting point of 141.6 to 142.3 °C.
Consider `COc1ccc(-n2nc(SC)cc2-c2ccc(OCCNC(N)=O)cc2)cc1`, for which the melting point lay in the range of 141.2 to 142.2 °C.
As to `COc1ccc(-n2nc(C(=O)N3CCCCC3)cc2-c2ccc(OCCO)cc2)cc1`, the melting point was 121.9 to 123.8 °C.
For the compound `COc1ccc(-n2nc(C(=O)N3CCCCC3)cc2-c2ccc(CNS(C)(=O)=O)cc2)cc1`, the melting point fell in the range of 179.3 to 179.6 °C.
As to `COc1ccc(-n2nc(Cl)cc2-c2ccc(OCCO)cc2)cn1`, the melting point was in the range of 136.5 to 138.2 °C.
In the case of `CCN(C)C(=O)c1cc(-c2ccc(CCNS(C)(=O)=O)cc2)n(-c2ccc(OC)nc2)n1`, the melting point was in the range of 137 to 138 °C.
As for `CCN(C)C(=O)c1cc(-c2ccc(OCCO)cc2)n(-c2ccc(OC)nc2)n1`, the figure is 110 to 111 °C.
With `COc1ccc(-n2nc(C(=O)N3CCCCC3)cc2-c2ccc(OCCNC(N)=O)cc2)cn1` the figure was 164 to 167 °C; with `CSc1ccc(-n2nc(C(F)F)cc2-c2ccc(OCCNS(C)(=O)=O)cc2)cc1`, 122.7 to 122.8 °C.
With `CCOc1cc(-c2ccc(OCCO)cc2)n(-c2ccc(OC)nc2)n1` the figure was 81 to 82 °C; with `CCN(C)C(=O)c1cc(-c2ccc(OCCN)cc2)n(-c2ccc(OC)cc2)n1.Cl`, 207 to 209 °C; with `COc1ccc(-n2nc(C(=O)N3CCCCC3)cc2-c2ccc(OCCNC(N)=O)cc2)cc1`, 152 to 152.2 °C.
Compound `COc1ccc(-n2nc(OC)cc2-c2ccc(CNC(N)=O)cc2)cc1` gave a melting point of 206 to 260.9 °C.
With `CCN(C)C(=O)c1cc(-c2ccc(OCCNC(N)=O)cc2)n(-c2ccc(OC)cc2)n1` the figure was 108 to 113 °C; with `COc1ccc(-n2nc(Cl)cc2-c2ccc(OCCNS(C)(=O)=O)cc2)cc1`, 117 to 119 °C; with `COc1ccc(-n2nc(C(C)C)cc2-c2ccc(CNS(C)(=O)=O)cc2)cc1`, 130.9 to 131 °C.
With `COc1ccc(-n2nc(C#N)cc2-c2ccc(OCCNC(N)=O)cc2)cc1` the figure was 187 to 190 °C; with `COc1ccc(-n2nc(C(F)(F)C(F)(F)F)cc2-c2ccc(CCO)cc2)cc1`, 97 to 98 °C.
With `COCOc1ccc(-c2cc(S(C)(=O)=O)nn2-c2ccc(OC)cc2)cc1` the figure was 128 to 128.1 °C; with `COc1ccc(-n2nc(C(C)(C)O)cc2-c2ccc(OCCNC(N)=O)cc2)cc1`, 147 to 152 °C.
In turn, `COc1ccc(-n2nc(S(C)(=O)=O)cc2-c2ccc(OCCO)cc2)cc1` yielded a melting point of 96 to 99 °C.
The compound `COc1ccc(-n2nc(C(F)(F)F)cc2-c2ccc(CCOC(N)=O)cc2)cc1` had a melting point of 169 to 170 °C.
Take `COc1ccc(-n2nc(C(C)C)cc2-c2ccc(CNC(N)=O)cc2)cn1`: the melting point lay in the range of 139 to 144 °C.
`COc1ccc(-n2nc(OC(C)C)cc2-c2ccc(OCCNC(N)=O)cc2)cc1` gave a melting point of 139 to 140 °C.
